From paper PMC8151276, “An Integrated Approach toward NanoBRET Tracers for Analysis of GPCR Ligand Engagement” (Molecules, 2021)

Key:
NPY5R = target: T1, NPY5R (Homo sapiens, UniProt Q15761); assay: NanoBRET screen HiBiT-NPY5R in HEK293; format: binding
T1 construct: purchased Promega (in-house HiBiT-GPCR construct library, NanoBRET)
T1 sequence (Q15761 1-445): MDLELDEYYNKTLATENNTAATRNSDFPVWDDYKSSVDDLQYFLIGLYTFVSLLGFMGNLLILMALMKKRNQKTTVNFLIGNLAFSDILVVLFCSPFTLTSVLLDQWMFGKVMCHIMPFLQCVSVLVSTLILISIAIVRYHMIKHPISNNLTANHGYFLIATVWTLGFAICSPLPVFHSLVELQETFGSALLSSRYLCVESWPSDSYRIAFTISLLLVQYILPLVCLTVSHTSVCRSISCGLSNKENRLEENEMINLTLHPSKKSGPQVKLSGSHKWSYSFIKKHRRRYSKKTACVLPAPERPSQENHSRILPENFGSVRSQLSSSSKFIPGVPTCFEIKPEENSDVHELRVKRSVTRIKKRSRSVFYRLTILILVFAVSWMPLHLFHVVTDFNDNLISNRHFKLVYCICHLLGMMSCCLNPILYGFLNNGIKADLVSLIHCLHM
Procedure: (§1) Each tracer candidate was screened across the entire library of HiBiT-GPCR constructs using NanoBRET as the detection modality. As depicted in Figure 4A, the specificity of interactions was evaluated through decrease in BRET due to competitive displacement of a bound tracer by excess parental compound. Each tracer was analyzed for binding to each HiBiT-GPCR fusion in the absence and in the presence of competing parental compound. Briefly, HEK293 cells were transfected with HiBiT-GPCR constructs diluted into promoterless DNA to reduce expression and maximize translocation to the cell surface. Each tracer candidate was then screened at concentrations of 1 μM and 0.1 μM across cells expressing these fusions. Cells were treated for 1.5 h with tracer either alone or in the presence of 20 μM competing parental compound (i.e., control). BRET was measured upon addition of purified LgBiT and subsequent complementation with HiBiT genetically fused to a GPCR. The specificity of interactions was assessed through a decrease in BRET signal due to competitive displacement of the bound tracer. To further gauge the robustness of these interactions, the fold response over the control (i.e., BRETtracer/BRETcontrol) was calculated. We chose a 1.5-fold response, which translates to ≥7-fold signal over noise as the minimal threshold required to score an interaction as positive.
(§2) HiBiT-GPCR DNA constructs were diluted in 10 mM Tris pH 8 to a final concentration of 0.01 μg/μL, arrayed in 96-well plates and stored at −20 °C. For transfection, HEK293 cells were suspended in Opti-MEM (without phenol red) supplemented with 2% fetal bovine serum (Seradigm) and 100 units/mL penicillin–streptomycin (Gibco) at a final concentration of 220,000 cells/mL and dispensed into white 96-well plates at 90 μL/well. Subsequent transfections and screens were carried using an Agilent Bravo Automated Liquid Handling Platform. First, the 96-well HiBiT DNA arrays were diluted 25-fold in Opti-MEM (without serum or phenol red) to a final concentration of 0.0004 μg/μL and 20 μL of the diluted DNAs were transferred into new 96-well plates. Next, promoterless carrier DNA (1 μg/μL) was diluted 25-fold (0.04 μg/μL) and then dispensed into the diluted arrays at 20 μL/well. Following brief mixing, Viafect transfection reagent (Promega) diluted 16-fold into Opti-MEM was dispensed into the plates at 40 μL/well. After mixing by pipetting, plates were incubated for 10 min on the pipetting station deck. The DNA-transfection reagent complexes were then added to plates containing cells. To facilitate the screen, 10 μL of DNA-transfection reagent complexes were added in duplicates to the top 4 and bottom 4 rows, resulting in two identical 48-well arrays per plate. Plates with transfected cells were incubated for 18–20 h at 37 °C/5% CO2. A screen of each tracer across the entire library using two different concentrations requires duplicate plates of transfected cells. Depending on the number of tracers being screened, transfections can be scaled up using the same ratios. The next day, for each tracer, four 20× screening solutions in tracer dilution buffer (Promega) were prepared: two duplicates at final concentration of 20 μM and two duplicates at a final concentration of 2 μM. […] The four resulting solutions were diluted 4-fold in Opti-MEM without serum or phenol red to generate 5× solutions (5 µM and 0.5 µM tracer +/− 100 μM competing compound). To screen the library, a BioTek MultiFlo FX liquid dispenser was used to dispense 22.5 µL of tracer solution to the top 4 rows and 22.5 µL tracer + competing compound solution to the 4 bottom rows. Plates were briefly mixed on an orbital shaker and incubated for 1.5 h at room temperature. […] Plates were briefly mixed on an orbital shaker and incubated for 15 min to allow complementation.

P2RY8 = target: T2, P2RY8 (Homo sapiens, UniProt Q86VZ1); assay: NanoBRET screen HiBiT-P2RY8 in HEK293; format: binding
T2 construct: purchased Promega (in-house HiBiT-GPCR construct library, NanoBRET)
Procedure: as §1, §2

[1] = tracer at 0.1μM, listed as amitriptyline-b-2-NB590
[2] = tracer at 1μM, listed as amitriptyline-b-2-NB590

T2 sequence (Q86VZ1 whole entry): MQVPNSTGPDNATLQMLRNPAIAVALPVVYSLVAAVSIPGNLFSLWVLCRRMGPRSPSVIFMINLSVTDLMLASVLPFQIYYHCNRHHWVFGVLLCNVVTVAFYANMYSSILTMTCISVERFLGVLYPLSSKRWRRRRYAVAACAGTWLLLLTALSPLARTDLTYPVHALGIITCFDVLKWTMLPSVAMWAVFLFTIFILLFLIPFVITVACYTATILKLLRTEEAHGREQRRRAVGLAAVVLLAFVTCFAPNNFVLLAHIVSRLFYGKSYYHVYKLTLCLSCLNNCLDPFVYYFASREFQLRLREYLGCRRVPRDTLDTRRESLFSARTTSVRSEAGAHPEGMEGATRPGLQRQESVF

For `CCOC(=O)c1cc(C#N)c(N2CCC(C(=O)NS(=O)(=O)Cc3ccccc3/C=C/C(=O)NCCNC(=O)CCc3ccc4n3[B-](F)(F)[N+]3=C(c5ccc[nH]5)C=CC3=C4)CC2)nc1C` [AZD1283-1-NB590], the “NanoBRET Fold Response” value (NPY5R; NPY5R, 0.1μM) was 1.01, the “NanoBRET Fold Response” value (NPY5R; NPY5R, 1μM) was 1.03 and the “NanoBRET Fold Response” value (P2RY8; P2RY8, 0.1μM) was 1.56. For the same molecule, the “NanoBRET Fold Response” value (P2RY8; P2RY8, 1μM) was 1.89.
In the case of `N#CN=C(NCCCOc1cccc(CN2CCCCC2)c1)NCCNC(=O)CCOCCOCCOCCOCCNC(=O)CCc1ccc2n1[B-](F)(F)[N+]1=C(c3ccc[nH]3)C=CC1=C2` [Aminopotentidine-2-NB590], the “NanoBRET Fold Response” value (NPY5R; NPY5R, tracer 0.1μM) is reported as 1.04, the “NanoBRET Fold Response” value (NPY5R; NPY5R, tracer 1μM) is reported as 0.97 and the “NanoBRET Fold Response” value (P2RY8; P2RY8, tracer 0.1μM) is reported as 1.06. The “NanoBRET Fold Response” value (P2RY8; P2RY8, tracer 1μM) was 1.02.
In the case of `CN(C)CCC=C1c2ccccc2CCc2ccc(C(=O)NCCNC(=O)CCOCCOCCOCCOCCNC(=O)CCc3ccc4n3[B-](F)(F)[N+]3=C(c5ccc[nH]5)C=CC3=C4)cc21` [Amitriptyline-a-2-NB590], the “NanoBRET Fold Response” value (NPY5R; tracer at 0.1μM) is reported as 1.03, the “NanoBRET Fold Response” value (NPY5R; tracer at 1μM) is reported as 0.99 and the “NanoBRET Fold Response” value (P2RY8; tracer at 0.1μM) is reported as 1.05. For the same molecule, the “NanoBRET Fold Response” value (P2RY8; tracer at 1μM) was 0.90.
For `CN(C)CCC=C1c2ccccc2CCc2ccc(C(=O)NCCNC(=O)CCOCCOCCOCCOCCNC(=O)CCc3ccc4n3[B-](F)(F)[N+]3=C(c5ccc[nH]5)C=CC3=C4)cc21` [Amitriptyline-b-2-NB590], the “NanoBRET Fold Response” value (NPY5R; [1]) was 0.89, the “NanoBRET Fold Response” value (NPY5R; [2]) was 1.02 and the “NanoBRET Fold Response” value (P2RY8; [1]) was 0.88. For the same molecule, the “NanoBRET Fold Response” value (P2RY8; [2]) was 1.07.
In the case of `CN(CCC=C1c2ccccc2CCc2ccccc21)C(=O)CCOCCOCCOCCOCCNC(=O)CCc1ccc2n1[B-](F)(F)[N+]1=C(c3ccc[nH]3)C=CC1=C2` [Amitriptyline-e-2-NB590], the “NanoBRET Fold Response” value (P2RY8; tracer at 1μM) is reported as 0.99.
With `COc1ccc2c(n1)c(CCNC(C)=O)cn2CCNC(=O)CCc1ccc2n1[B-](F)(F)[N+]1=C(c3ccc[nH]3)C=CC1=C2` [Azamelatonin-1-NB590] the “NanoBRET Fold Response” value (NPY5R; 0.1μM tracer) was 1.14, the “NanoBRET Fold Response” value (NPY5R; 1μM tracer) was 1.09 and the “NanoBRET Fold Response” value (P2RY8; 0.1μM tracer) was 1.30. For the same molecule, the “NanoBRET Fold Response” value (P2RY8; 1μM tracer) was 1.30.
`COc1ccc2[nH]c(-c3ccc(CNC(=O)CCOCCOCCOCCOCCNC(=O)CCc4ccc5n4[B-](F)(F)[N+]4=C(c6ccc[nH]6)C=CC4=C5)cc3)c(CCNC(C)=O)c2n1` [AzomelatoninICO9-2-NB590] was tested, and the “NanoBRET Fold Response” value (NPY5R; 0.1μM tracer) was 0.91, the “NanoBRET Fold Response” value (NPY5R; 1μM tracer) was 1.07 and the “NanoBRET Fold Response” value (P2RY8; 0.1μM tracer) was 1.14. The “NanoBRET Fold Response” value (P2RY8; 1μM tracer) was 1.05.
In the case of `O=C(CCOCCOCCOCCOCCNC(=O)CCc1ccc2n1[B-](F)(F)[N+]1=C(c3ccc[nH]3)C=CC1=C2)NCCCN1CCN(C2=Nc3cc(Cl)ccc3Nc3ccccc32)CC1` [Clozapine-a-2-NB590], the “NanoBRET Fold Response” value (NPY5R; NPY5R, 0.1μM tracer) is reported as 1.15, the “NanoBRET Fold Response” value (NPY5R; NPY5R, 1μM tracer) is reported as 0.96 and the “NanoBRET Fold Response” value (P2RY8; P2RY8, 0.1μM tracer) is reported as 0.97. The “NanoBRET Fold Response” value (P2RY8; P2RY8, 1μM tracer) was 0.96.
`CN1CCN(C2=Nc3cc(Cl)ccc3Nc3ccc(CNC(=O)CCOCCOCCOCCOCCNC(=O)CCc4ccc5n4[B-](F)(F)[N+]4=C(c6ccc[nH]6)C=CC4=C5)cc32)CC1` [Clozapine-b-2-NB590] was tested, and the “NanoBRET Fold Response” value (NPY5R; NPY5R, 0.1μM tracer) was 1.02, the “NanoBRET Fold Response” value (NPY5R; NPY5R, 1μM tracer) was 1.04 and the “NanoBRET Fold Response” value (P2RY8; P2RY8, 0.1μM tracer) was 0.97. For the same molecule, the “NanoBRET Fold Response” value (P2RY8; P2RY8, 1μM tracer) was 0.93.
With `CN1CCN(C2=Nc3cc(Cl)ccc3N(CC(=O)NCCOCCOCCOCCOCCNC(=O)CCc3ccc4n3[B-](F)(F)[N+]3=C(c5ccc[nH]5)C=CC3=C4)c3ccccc32)CC1` [Clozapine-c-2-NB590] the “NanoBRET Fold Response” value (NPY5R; NPY5R, 0.1μM tracer) was 0.99, the “NanoBRET Fold Response” value (NPY5R; NPY5R, 1μM tracer) was 0.97 and the “NanoBRET Fold Response” value (P2RY8; P2RY8, 0.1μM tracer) was 1.05. The “NanoBRET Fold Response” value (P2RY8; P2RY8, 1μM tracer) was 0.79.
